Test results taken from paper PMC10460880, “Cathepsin K‐Activated Probe for Fluoro‐Photoacoustic Imaging of Early Osteolytic Metastasis” (Advanced Science, 2023).

Tests used:
cathepsin K (CTSK) [1] = biological target: T1, cathepsin K (CTSK) (Homo sapiens, UniProt P43235); assay: CTSK activation of probe adsorbed on HA; assay type: biochemical; conditions: probe 10 μM on HA 10 mg/mL (30 min), then CTSK 200 ng/mL, n = 3
T1 sequence (P43235 115-329): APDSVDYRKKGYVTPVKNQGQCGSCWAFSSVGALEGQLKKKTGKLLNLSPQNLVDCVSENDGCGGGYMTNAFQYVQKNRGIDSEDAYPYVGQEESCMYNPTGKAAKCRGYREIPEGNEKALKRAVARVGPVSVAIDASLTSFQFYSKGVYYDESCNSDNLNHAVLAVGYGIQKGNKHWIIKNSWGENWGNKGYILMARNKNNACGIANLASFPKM
Description: In Vitro bone-binding and CTSK activation assay. Hydroxyapatite (HA) was used as a substitute for bone in vitro to evaluate the bone-binding ability of CTSK-APPA and CTSK-APP. CTSK-APPA or CTSK-APP (10 μM) was mildly stirred with HA (10 mg/mL) at 37 °C for different times (0, 10, 30, 60, and 120 min). The mixture was centrifugated at 4000 g for 5 min and then washed with a 10-fold excess of PBS (1×) three times. The efficiency of HA binding was determined from the fluorescence intensities of the precipitation according to the equation: (F – Fblank)/(F0 – Fblank)*100%, where F represents the fluorescence intensity of the precipitation incubated with HA for a determined time, and Fblank represents the blank fluorescence intensity. After verifying the appropriate bone-binding time, CTSK-APPA or CTSK-APP (10 μM) was mixed with HA (10 mg/mL) at 37 °C for 30 min, and then CTSK (200 ng/mL) was added to the corresponding mixture and incubated at 37 °C for another 1 h under mild stirring. The mixture was centrifugated at 4000 g for 5 min and then washed with a 10-fold excess of MES buffer (50 mM, pH 6.0) three times. Fluorescence images were captured by using the IVIS Spectrum imaging system with excitation at 660 ± 10 nm and emission at 710 ± 10 nm. PA images were captured by using a MSOT scanner with excitation at 700 nm. […]

cathepsin K (CTSK) [2] = biological target: T1, cathepsin K (CTSK); assay: Kinetic assay (Michaelis-Menten) of probe cleavage by CTSK; assay type: biochemical
Description: In vitro analysis of cathepsin K (CTSK) activation, selectivity, and sensitivity studies.
Probe CTSK-APPA, D-CTSK-APPA, or CTSK-APP (10 μM) was incubated with CTSK in MES buffer (50 mM, pH 6.0) containing 0.1% DMSO, 2 mM ethylene diamine tetraacetic acid (EDTA), 4 mM dithiothreitol (DTT) and 0.15% chondroitin sulfate (CS) at 37 °C for 1 h. After incubation at the indicated time, UV-Vis spectra, fluorescence spectra, fluorescence images, and PA images of the solutions were recorded. […]
PA images were captured by using a MSOT scanner with
Kinetic assay. Different concentrations of CTSK-APPA or CTSK-APP (1, 2, 5, 10, 20, or 50 μM) were incubated with CTSK (100 ng/mL) in MES buffer containing 0.1% DMSO, 2mM EDTA, 4mM DTT, and 0.15% CS at 37 °C for 5 min. Fluorescence intensities of solution were measured for quantification analyses by a microplate reader (BioTek, Synergy 2) with excitation at 690 nm and emission at 720 nm. The kinetic parameters were calculated according to the Michaelis-Menten equation shown below: V = Vmax×[S]/(Km + [S]), where V is initial velocity, and [S] is substrate concentration.
(1 picture or pasted object on this page, not shown here)

[3] = Hydroxyapatite (HA) adsorption assay (in vitro bone binding); conditions: probe 10 μM, HA 10 mg/mL, 37 °C, fluorescence of precipitate
Description: In Vitro bone-binding and CTSK activation assay. Hydroxyapatite (HA) was used as a substitute for bone in vitro to evaluate the bone-binding ability of CTSK-APPA and CTSK-APP. CTSK-APPA or CTSK-APP (10 μM) was mildly stirred with HA (10 mg/mL) at 37 °C for different times (0, 10, 30, 60, and 120 min). The mixture was centrifugated at 4000 g for 5 min and then washed with a 10-fold excess of PBS (1×) three times. The efficiency of HA binding was determined from the fluorescence intensities of the precipitation according to the equation: (F – Fblank)/(F0 – Fblank)*100%, where F represents the fluorescence intensity of the precipitation incubated with HA for a determined time, and Fblank represents the blank fluorescence intensity. […]

fluorescence on/off ratio of HA-adsorbed probe (cathepsin K (CTSK) [1]; Ex 660 nm, 720 nm): 5.1 | enhancement factor for PA signal of HA-adsorbed probe (cathepsin K (CTSK) [1]; Ex 700 nm): approximately 2.8 | HA-binding efficiency after 30 min [3]: approximately 96%
Substance: Cbz‐Leu‐Arg‐OH [CTSK-APPA]
catalytic efficiency (kcat/Km) (cathepsin K (CTSK) [2]; from Km and kcat): 890000 M⁻¹ s⁻¹ | Km (cathepsin K (CTSK) [2]; probe 1-50 μM, CTSK 100 ng/mL, MES buffer, 37 °C, 5 min, Ex 690/Em 720 nm, n = 3, read-out: Michaelis–Menten constant (Km)): 22.9 µM | catalytic rate constant (kcat) (cathepsin K (CTSK) [2]; probe 1-50 μM, CTSK 100 ng/mL, MES buffer, 37 °C, 5 min, n = 3): 20.4 s⁻¹
